Results reported in BindingDB's records for doi:10.1021/jm050142+ (Universite De Montreal At Succursale Centre-Ville, 2005).

Target: Cathepsin D (Homo sapiens, UniProt P07339)
Test: Enzyme Inhibition Measurements
Details: 25 °C

Chain of Cathepsin D (P07339 65-162 limits assumed): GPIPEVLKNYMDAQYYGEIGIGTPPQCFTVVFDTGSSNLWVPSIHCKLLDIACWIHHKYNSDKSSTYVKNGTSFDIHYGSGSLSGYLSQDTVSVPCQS
Chain of Cathepsin D (P07339 169-412 limits assumed): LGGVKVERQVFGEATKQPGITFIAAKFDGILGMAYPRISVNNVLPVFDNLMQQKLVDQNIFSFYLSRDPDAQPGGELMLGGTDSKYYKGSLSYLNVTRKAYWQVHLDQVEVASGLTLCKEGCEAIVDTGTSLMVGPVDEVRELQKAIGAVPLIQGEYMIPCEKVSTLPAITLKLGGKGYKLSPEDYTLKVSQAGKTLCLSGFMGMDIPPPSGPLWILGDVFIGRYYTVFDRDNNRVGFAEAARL

IC50: 280 nM
SMILES: CCCCNC(=O)[C@@H](NC(=O)[C@@H]1OCC[C@H]1[C@H](O)[C@H](CC(C)C)NC(=O)[C@H](CCSC)NC(=O)[C@H](CC(C)C)NC(C)=O)C(C)C [(2S)-N-[(1S)-1-{[(1S,2S)-1-[(2R,3S)-2-{[(1S)-1-(butylcarbamoyl)-2-methylpropyl]carbamoyl}oxolan-3-yl]-1-hydroxy-4-methylpentan-2-yl]carbamoyl}-3-(methylsulfanyl)propyl]-2-acetamido-4-methylpentanamide]
